# Results reported in patent publication US9617302B2 (priority 2011, dated 2017).
# Where “and” joins values, the source holds several entries; their conditions need not be identical. Equal values may be shown once. Entries after “also recorded” stand apart in the source; their conditions may differ. No end group written: not given here.
# How the values were obtained:
# [1] = system: platelet-rich thrombus formation in irradiated mesenteric venules; assay: Fluorescein sodium-induced platelet thrombus formation in mesenteric venules; format: in vivo, mice
# Tail bleeding time = format: in vivo, mice; conditions: 5 min after injection
# Description: Bleeding time was measured by a minor modified method described by Dejana et al (Dejana E, Villa S, de Gaetano G. Bleeding time in rats: a comparison of different experimental conditions. Thrombosis and haemostasis 1982 Aug. 24; 48(1):108-11). […] A sharp cut of 2 mm from tail tip of mouse was made 5 min after injection. The tail was immediately placed into a tube filled with saline, kept at 37° C. for measuring bleeding time.
# washed platelets = format: cell-based, human; conditions: for IC50: read-out: IC50, inhibition of the collagen-induced aggregation
# [2] = Platelet count of whole blood after administration; format: in vivo, mice; conditions: 30 mg/kg, 5 min after administration; control 11.41±0.19
# Description: Male ICR mice (25-30 g) were intravenously (IV) injected with PBS or hexapeptide (30 mg/kg), and then blood was collected at 5 min after injection. The platelet number of the whole blood sample was counted by a Sysmex cell counter (Chuo-Ku Kobe, Japan). PRP was prepared immediately by centrifugation at 200 g for 5 min. Platelet counts in PRP were adjusted to 3×10^8/ml and aggregation assay was performed in an aggregometer.
# [3] = system: [Ca2+]i elevation in platelets; assay: Intracellular Ca2+ level in Fura-2-loaded platelets stimulated with collagen; format: cell-based; conditions: Fura-2/AM; various concentrations
# Description: The concentration of intracellular free Ca^2+ was determined using a fluorescent probe, Fura-2/AM, according to the method of Pollock and Rink (Pollock W K, Rink T J. Thrombin and ionomycin can raise platelet cytosolic Ca2+ to micromolar levels by discharge of internal Ca2+ stores: studies using fura-2. Biochemical and biophysical research communications 1986 Aug. 29; 139(1):308-14). Fura-2/AM—loaded platelets were prepared as the washed platelets except washing with Ca^2+-free Tyrode solution and allowed platelets to uptake Fura-2/AM (5 μM) for 30 min in the first wash. The intracellular Ca^2+ level of Fura-2-loaded platelets (3×10^8/ml) in the presence of 1 mM of Ca^2+ was measured by the fluorescence change (excitation at 339 nm, emission at 500 nm) with a Hitachi fluorescence spectrophotometer.
# [4] = system: platelet-rich plasma (PRP) prepared from mice; assay: Ex vivo platelet aggregation study (PRP of treated mice, collagen); format: in vivo; conditions: 10 mg/kg; collagen 3 μg/ml
# Description: […] The platelet number of the whole blood sample was counted by a Sysmex cell counter (Chuo-Ku Kobe, Japan). PRP was prepared immediately by centrifugation at 200 g for 5 min. Platelet counts in PRP were adjusted to 3×10^8/ml and aggregation assay was performed in an aggregometer.
# GPVI = GPVI (Homo sapiens, UniProt Q9HCN6); format: binding
# GPVI, sequence (Q9HCN6 21-339): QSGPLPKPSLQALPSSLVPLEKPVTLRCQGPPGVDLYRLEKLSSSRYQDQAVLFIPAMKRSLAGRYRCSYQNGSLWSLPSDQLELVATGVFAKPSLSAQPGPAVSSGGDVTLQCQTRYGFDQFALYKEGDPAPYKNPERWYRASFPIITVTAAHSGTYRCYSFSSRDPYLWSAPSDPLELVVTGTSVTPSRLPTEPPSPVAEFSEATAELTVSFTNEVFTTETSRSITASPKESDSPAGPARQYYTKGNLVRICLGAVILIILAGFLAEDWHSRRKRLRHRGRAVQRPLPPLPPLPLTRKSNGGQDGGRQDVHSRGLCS
# GPVI, sequence (P30273 19-86, further chain): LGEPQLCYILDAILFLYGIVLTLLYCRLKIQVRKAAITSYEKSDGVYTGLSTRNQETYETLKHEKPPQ
compound,measurement,setting,value
"CC(=O)Oc1ccccc1C(=O)O [aspirin, reference compound]",Occlusion time,"[1]; 250 mg/kg, control (PBS) 111.1 ± 5.1 s",298.7 ± 29.6 s
same,Occlusion time,"[1]; 250 mg/kg, control (PBS) 111.1 ± 5.1 s, listed as Aspirin",298.7 ± 29.6 s
same,Bleeding time,Tail bleeding time; 250 mg/kg IV,8.20 ± 0.91 min
CCCCS(=O)(=O)N[C@@H](Cc1ccc(OCCCCC2CCNCC2)cc1)C(=O)O [tirofiban],Bleeding time,Tail bleeding time; 0.4 mg/kg IV,4.20 ± 1.20 min
C(dK)WM(dN)V [d-form Tro-α6],"IC50, inhibition of the collagen-induced aggregation",washed platelets,(IC50: 6.82 ± 3.34 μg/ml
same,Inhibition of the collagen-induced aggregation (%),washed platelets,89.44 ± 6.49%
same,IC50,washed platelets,8.75 µM
CKAMNV [Tro-α6 W116A],Inhibition of the collagen-induced aggregation (%),washed platelets,12.28 ± 2.40%
same,Inhibitory activity on collagen-induced platelet aggregation (in words),washed platelets,decreased dramatically; also recorded: diminished
CKWANV [Tro-α6 M117A],Inhibition of the collagen-induced aggregation (%),washed platelets,52.91 ± 15.90%
"CKWMNV [Tro-α6, CKWMNV]",Platelet count,[2],11.18±0.30 ×10^8/ml
CWNKMV [Tro-α6 scramble],Inhibitory activity on collagen-induced platelet aggregation (in words),washed platelets,little effect
GFCKWMNVAC [Tro-α10],Collagen-evoked increase of [Ca2+]i,[3],inhibited by decapeptide in a concentration-dependent manner
same,"% of inhibition, collagen-induced platelet aggregation ex vivo",[4],55.87 ± 10.82 (n = 11) %
same,Binding of anti-GPVI mAb (326E12) to platelets,GPVI,specifically inhibited
same,"IC50, inhibition of the collagen-induced aggregation",washed platelets,93.75 ± 6.25 (IC50: 35.17 ± 11.00
same,Inhibition of the collagen-induced aggregation (%),washed platelets,60% and 93.75 ± 6.25 (IC50: 35.17 ± 11.00%
same,IC50,washed platelets,30.4 µM
same,Occlusion time,"[1]; 10 mg/kg, control (PBS) 153.0 ± 13.5 s",294.5 ± 25.4 s
same,Occlusion time,"[1]; 10 mg/kg, control (PBS) 153.0 ± 13.5 s, listed as Decapeptide",294.5 ± 25.4 s
RKWVNY [Agg-α6],Inhibition of the collagen-induced aggregation (%),washed platelets,21.67 ± 9.33%
